# Results reported in PubChem BioAssay (NCI).
#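 Exposure lasted 48 hours, with cells grown in 96-well plates and compounds tested at five concentrations. The concentration for 50% growth inhibition is given as GI50. At the TGI there is no net growth.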
# Experiments:
# Experiment in all cases: NCI tumour cell line growth inhibition, 48 h
# 786-0 renal = system: 786-0 renal
# A498 renal = system: A498 renal
# A549 NSCLC = system: A549 NSCLC
# ACHN renal = system: ACHN renal
# BT-549 breast = system: BT-549 breast
# CAKI-1 renal = system: CAKI-1 renal
# CCRF-CEM leukemia = system: CCRF-CEM leukemia
# COLO 205 colon = system: COLO 205 colon
# DU-145 prostate = system: DU-145 prostate
# EKVX NSCLC = system: EKVX NSCLC
# HCC-2998 colon = system: HCC-2998 colon
# HCT-116 colon = system: HCT-116 colon
# HCT-15 colon = system: HCT-15 colon
# HL-60(TB) leukemia = system: HL-60(TB) leukemia
# HOP-62 NSCLC = system: HOP-62 NSCLC
# HOP-92 NSCLC = system: HOP-92 NSCLC
# HS 578T breast = system: HS 578T breast
# HT29 colon = system: HT29 colon
# IGROV1 ovarian = system: IGROV1 ovarian
# K-562 leukemia = system: K-562 leukemia
# KM12 colon = system: KM12 colon
# LOX IMVI melanoma = system: LOX IMVI melanoma
# M14 melanoma = system: M14 melanoma
# MALME-3M melanoma = system: MALME-3M melanoma
# MCF7 breast = system: MCF7 breast
# MDA-MB-231 breast = system: MDA-MB-231 breast
# MDA-MB-435 = system: MDA-MB-435
# MDA-N = system: MDA-N
# MOLT-4 leukemia = system: MOLT-4 leukemia
# NCI-H226 lung = system: NCI-H226 lung
# NCI-H23 lung = system: NCI-H23 lung
# NCI-H460 lung = system: NCI-H460 lung
# NCI-H522 lung = system: NCI-H522 lung
# NCI/ADR-RES ovarian = system: NCI/ADR-RES ovarian
# OVCAR-3 ovarian = system: OVCAR-3 ovarian
# OVCAR-4 ovarian = system: OVCAR-4 ovarian
# OVCAR-5 ovarian = system: OVCAR-5 ovarian
# OVCAR-8 ovarian = system: OVCAR-8 ovarian
# PC-3 prostate = system: PC-3 prostate
# RPMI-8226 leukemia = system: RPMI-8226 leukemia
# SF-268 CNS = system: SF-268 CNS
# SF-295 CNS = system: SF-295 CNS
# SF-539 CNS = system: SF-539 CNS
# SK-MEL-2 melanoma = system: SK-MEL-2 melanoma
# SK-MEL-28 melanoma = system: SK-MEL-28 melanoma
# SK-MEL-5 melanoma = system: SK-MEL-5 melanoma
# SK-OV-3 ovarian = system: SK-OV-3 ovarian
# SN12C renal = system: SN12C renal
# SNB-19 CNS = system: SNB-19 CNS
# SNB-75 CNS = system: SNB-75 CNS
# SR leukemia = system: SR leukemia
# SW-620 colon = system: SW-620 colon
# T-47D breast = system: T-47D breast
# TK-10 renal = system: TK-10 renal
# U251 CNS = system: U251 CNS
# UACC-257 melanoma = system: UACC-257 melanoma
# UACC-62 melanoma = system: UACC-62 melanoma
# UO-31 renal = system: UO-31 renal
smiles,measurement,setting,value
CCCCCC[n+]1noc(N)c1-c1ccc(-c2c(N)on[n+]2CCCCCC)cc1,GI50,786-0 renal,1.61 µg/mL
same,TGI,786-0 renal,3.32 µg/mL
same,GI50,A498 renal,6.03 µg/mL
same,TGI,A498 renal,16 µg/mL
same,GI50,A549 NSCLC,5.25 µg/mL
same,TGI,A549 NSCLC,13.9 µg/mL
same,GI50,ACHN renal,7.74 µg/mL
same,TGI,ACHN renal,20.7 µg/mL
same,GI50,BT-549 breast,3.83 µg/mL
same,TGI,BT-549 breast,14 µg/mL
same,GI50,CAKI-1 renal,2.18 µg/mL
same,TGI,CAKI-1 renal,5.22 µg/mL
same,GI50,CCRF-CEM leukemia,5.09 µg/mL
same,TGI,CCRF-CEM leukemia,10.1 µg/mL
same,GI50,COLO 205 colon,1.66 µg/mL
same,TGI,COLO 205 colon,3.58 µg/mL
same,GI50,DU-145 prostate,9.82 µg/mL
same,TGI,DU-145 prostate,24.4 µg/mL
same,GI50,EKVX NSCLC,7.71 µg/mL
same,TGI,EKVX NSCLC,23.2 µg/mL
same,GI50,HCC-2998 colon,1.45 µg/mL
same,TGI,HCC-2998 colon,2.79 µg/mL
same,GI50,HCT-116 colon,3.97 µg/mL
same,TGI,HCT-116 colon,14.3 µg/mL
same,GI50,HCT-15 colon,2.59 µg/mL
same,TGI,HCT-15 colon,8.72 µg/mL
same,GI50,HL-60(TB) leukemia,1.61 µg/mL
same,TGI,HL-60(TB) leukemia,3.07 µg/mL
same,GI50,HOP-62 NSCLC,7.64 µg/mL
same,TGI,HOP-62 NSCLC,20.6 µg/mL
same,GI50,HOP-92 NSCLC,1.09 µg/mL
same,TGI,HOP-92 NSCLC,5.91 µg/mL
same,GI50,HS 578T breast,2.13 µg/mL
same,TGI,HS 578T breast,5.06 µg/mL
same,GI50,HT29 colon,1.85 µg/mL
same,TGI,HT29 colon,4.01 µg/mL
same,GI50,IGROV1 ovarian,6.74 µg/mL
same,TGI,IGROV1 ovarian,20.4 µg/mL
same,GI50,K-562 leukemia,1.79 µg/mL
same,TGI,K-562 leukemia,3.8 µg/mL
same,GI50,KM12 colon,3.97 µg/mL
same,TGI,KM12 colon,14.6 µg/mL
same,GI50,LOX IMVI melanoma,1.95 µg/mL
same,TGI,LOX IMVI melanoma,4.21 µg/mL
same,GI50,M14 melanoma,1.9 µg/mL
same,TGI,M14 melanoma,3.43 µg/mL
same,GI50,MALME-3M melanoma,1.81 µg/mL
same,TGI,MALME-3M melanoma,3.33 µg/mL
same,GI50,MCF7 breast,1.97 µg/mL
same,TGI,MCF7 breast,4.1 µg/mL
same,GI50,MDA-MB-231 breast,3.3 µg/mL
same,TGI,MDA-MB-231 breast,9.87 µg/mL
same,GI50,MDA-MB-435,1.76 µg/mL
same,TGI,MDA-MB-435,3.23 µg/mL
same,GI50,MDA-N,1.78 µg/mL
same,TGI,MDA-N,3.48 µg/mL
same,GI50,MOLT-4 leukemia,2.36 µg/mL
same,TGI,MOLT-4 leukemia,7.33 µg/mL
same,GI50,NCI-H226 lung,14.2 µg/mL
same,TGI,NCI-H226 lung,28.2 µg/mL
same,GI50,NCI-H23 lung,14.1 µg/mL
same,TGI,NCI-H23 lung,27.9 µg/mL
same,GI50,NCI-H460 lung,2.03 µg/mL
same,TGI,NCI-H460 lung,4.7 µg/mL
same,GI50,NCI-H522 lung,1.99 µg/mL
same,TGI,NCI-H522 lung,3.69 µg/mL
same,GI50,NCI/ADR-RES ovarian,12.5 µg/mL
same,TGI,NCI/ADR-RES ovarian,25.6 µg/mL
same,GI50,OVCAR-3 ovarian,12.7 µg/mL
same,TGI,OVCAR-3 ovarian,26.1 µg/mL
same,GI50,OVCAR-4 ovarian,2.62 µg/mL
same,TGI,OVCAR-4 ovarian,14.9 µg/mL
same,GI50,OVCAR-5 ovarian,5.54 µg/mL
same,TGI,OVCAR-5 ovarian,14.6 µg/mL
same,GI50,OVCAR-8 ovarian,2.6 µg/mL
same,TGI,OVCAR-8 ovarian,9.53 µg/mL
same,GI50,PC-3 prostate,3.46 µg/mL
same,TGI,PC-3 prostate,16.8 µg/mL
same,GI50,RPMI-8226 leukemia,1.98 µg/mL
same,TGI,RPMI-8226 leukemia,4.71 µg/mL
same,GI50,SF-268 CNS,7.82 µg/mL
same,TGI,SF-268 CNS,22.4 µg/mL
same,GI50,SF-295 CNS,1.88 µg/mL
same,TGI,SF-295 CNS,3.73 µg/mL
same,GI50,SF-539 CNS,1.77 µg/mL
same,TGI,SF-539 CNS,3.42 µg/mL
same,GI50,SK-MEL-2 melanoma,1.61 µg/mL
same,TGI,SK-MEL-2 melanoma,3.1 µg/mL
same,GI50,SK-MEL-28 melanoma,1.69 µg/mL
same,TGI,SK-MEL-28 melanoma,3.13 µg/mL
same,GI50,SK-MEL-5 melanoma,1.66 µg/mL
same,TGI,SK-MEL-5 melanoma,3.04 µg/mL
same,GI50,SK-OV-3 ovarian,3.37 µg/mL
same,TGI,SK-OV-3 ovarian,11 µg/mL
same,GI50,SN12C renal,6.2 µg/mL
same,TGI,SN12C renal,17.3 µg/mL
same,GI50,SNB-19 CNS,9.62 µg/mL
same,TGI,SNB-19 CNS,22.8 µg/mL
same,GI50,SNB-75 CNS,3.41 µg/mL
same,TGI,SNB-75 CNS,11.3 µg/mL
same,GI50,SR leukemia,1.89 µg/mL
same,TGI,SR leukemia,4.87 µg/mL
same,GI50,SW-620 colon,2.32 µg/mL
same,TGI,SW-620 colon,6.14 µg/mL
same,GI50,T-47D breast,2.49 µg/mL
same,TGI,T-47D breast,6.28 µg/mL
same,GI50,TK-10 renal,2.81 µg/mL
same,TGI,TK-10 renal,8.51 µg/mL
same,GI50,U251 CNS,1.71 µg/mL
same,TGI,U251 CNS,3.47 µg/mL
same,GI50,UACC-257 melanoma,1.73 µg/mL
same,TGI,UACC-257 melanoma,3.34 µg/mL
same,GI50,UACC-62 melanoma,1.94 µg/mL
same,TGI,UACC-62 melanoma,3.51 µg/mL
same,GI50,UO-31 renal,1.89 µg/mL
same,TGI,UO-31 renal,4.46 µg/mL
